Source: the supplement of paper PMC11208160
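Note: IS621 bridge recombinase in Escherichia coli cells against a fixed T5 target plasmid.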

Assay: recombinant UMI read abundance after kanamycin selection (control-corrected) (log10(CPM+1)); higher = more efficient recombination; extreme values may be limits of the assay; sequences stand for … in AGTGCAGAGAAAATCGGCCAGTTTTCTCTGCCTGCAGTCCGCATGCCGTGGGACCCCTTGGGTTCTAACCTGTTGCCTAGATTTATGCAGCGGACTGCCTTTCTCCCAAAGTGATAAACCGG…AGGTTGGTTTCACT; site = the 11-nt donor
In short: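 Sequencing read counts were converted to CPM, averaged over two replicates and scaled by control-derived factors. Results are given as log10(CPM+1). The reads covered the donor–target junction of recombinant UMIs from a pooled Escherichia coli screen of donor and donor-binding-loop pairs for the IS621 bridge recombinase.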
For “TCCAATTCATGGACCGGTTTTCCCGGTAATCCGTATTTGAC (site TCCAATTCTGG)”, the “recombinant UMI read abundance (log10)” value was 0.
With “TCCAATTCATGGACCGGTTTTCCCGGTAATCCGTATTTGAC (site TCCAATTCTGT)” the “recombinant UMI read abundance (log10)” value was 0.
For “TCCAATTCATGGACCGGTTTTCCCGGTAATCCGTATTTGCT (site TCCAATTCTAG)”, the “recombinant UMI read abundance (log10)” value was 0.
In the case of “TCCAATTCATGGACCGGTTTTCCCGGTAATCCGTATTTGCT (site TCCAATTCTCG)”, the “recombinant UMI read abundance (log10)” value is reported as 0.
For “TCCAATTCATGGACCGGTTTTCCCGGTAATCCGTATTTGCT (site TCCAATTCTGG)”, the “recombinant UMI read abundance (log10)” value was 0.
With “TCCAATTCATGGACCGGTTTTCCCGGTAATCCGTATTTGCT (site TCCAATTCTTG)” the “recombinant UMI read abundance (log10)” value was 0.
For “TCCACCGCATGGACCGGTTTTCCCGGTAATCCGTATTTGGG (site TCCACCGCTCA)”, the “recombinant UMI read abundance (log10)” value was 0.0369.
For “TCCACCGCATGGACCGGTTTTCCCGGTAATCCGTATTTGGG (site TCCACCGCTCC)”, the “recombinant UMI read abundance (log10)” value was 0.00928.
With “TCCACCGCATGGACCGGTTTTCCCGGTAATCCGTATTTGGG (site TCCACCGCTCG)” the “recombinant UMI read abundance (log10)” value was 0.0231.
For “TCCACCGCATGGACCGGTTTTCCCGGTAATCCGTATTTGGG (site TCCACCGCTCT)”, the “recombinant UMI read abundance (log10)” value was 0.0189.
With “TCCATCGCATGGACCGGTTTTCCCGGTAATCCGTATTTGCG (site TCCAACGCTCG)” the “recombinant UMI read abundance (log10)” value was 0.
With “TCCATCGCATGGACCGGTTTTCCCGGTAATCCGTATTTGCG (site TCCACCGCTCG)” the “recombinant UMI read abundance (log10)” value was 0.0339.
With “TCCATCGCATGGACCGGTTTTCCCGGTAATCCGTATTTGCG (site TCCAGCGCTCG)” the “recombinant UMI read abundance (log10)” value was 0.047.
In the case of “TCCATCGCATGGACCGGTTTTCCCGGTAATCCGTATTTGCG (site TCCATCGCTCG)”, the “recombinant UMI read abundance (log10)” value is reported as 0.00801.
With “TCCCAATCATGGACCGGTTTTCCCGGTAATCCGTATTTGTT (site TCCCAATCTAA)” the “recombinant UMI read abundance (log10)” value was 0.00639.
For “TCCCACCCATGGACCGGTTTTCCCGGTAATCCGTATTTGCA (site TCCCACCCTTG)”, the “recombinant UMI read abundance (log10)” value was 0.
In the case of “TCCCATACATGGACCGGTTTTCCCGGTAATCCGTATTTGGC (site TCCCATACTGC)”, the “recombinant UMI read abundance (log10)” value is reported as 0.
In the case of “TCCCCCGCATGGACCGGTTTTCCCGGTAATCCGTATTTGCG (site TCCACCGCTCG)”, the “recombinant UMI read abundance (log10)” value is reported as 0.00501.
For “TCCCCCGCATGGACCGGTTTTCCCGGTAATCCGTATTTGCG (site TCCCCCGCTCG)”, the “recombinant UMI read abundance (log10)” value was 0.0127.
For “TCCCCCGCATGGACCGGTTTTCCCGGTAATCCGTATTTGCG (site TCCGCCGCTCG)”, the “recombinant UMI read abundance (log10)” value was 0.0064.
With “TCCCCCGCATGGACCGGTTTTCCCGGTAATCCGTATTTGCG (site TCCTCCGCTCG)” the “recombinant UMI read abundance (log10)” value was 0.00786.
In the case of “TCCCCTACATGGACCGGTTTTCCCGGTAATCCGTATTTGCC (site TCCCCTACTGG)”, the “recombinant UMI read abundance (log10)” value is reported as 0.
With “TCCCTTACATGGACCGGTTTTCCCGGTAATCCGTATTTGTA (site TCCCTTACTTA)” the “recombinant UMI read abundance (log10)” value was 0.0182.
With “TCCCTTGCATGGACCGGTTTTCCCGGTAATCCGTATTTGGT (site TCCCTTGCTAC)” the “recombinant UMI read abundance (log10)” value was 0.
In the case of “TCCGACGCATGGACCGGTTTTCCCGGTAATCCGTATTTGCT (site TCCGACGCTAG)”, the “recombinant UMI read abundance (log10)” value is reported as 0.968.
With “TCCGGAACATGGACCGGTTTTCCCGGTAATCCGTATTTGCT (site TCCGGAACTAG)” the “recombinant UMI read abundance (log10)” value was 0.
In the case of “TCCGGGTCATGGACCGGTTTTCCCGGTAATCCGTATTTGAC (site GGAATCGCTAG)”, the “recombinant UMI read abundance (log10)” value is reported as 0.
For “TCCGGTCCATGGACCGGTTTTCCCGGTAATCCGTATTTGCA (site ACCGGTCCTTG)”, the “recombinant UMI read abundance (log10)” value was 0.
In the case of “TCCGGTCCATGGACCGGTTTTCCCGGTAATCCGTATTTGCA (site CCCGGTCCTTG)”, the “recombinant UMI read abundance (log10)” value is reported as 0.
With “TCCGGTCCATGGACCGGTTTTCCCGGTAATCCGTATTTGCA (site GCCGGTCCTTG)” the “recombinant UMI read abundance (log10)” value was 0.
For “TCCGGTCCATGGACCGGTTTTCCCGGTAATCCGTATTTGCA (site TCCGGTCCTTG)”, the “recombinant UMI read abundance (log10)” value was 0.
For “TCCTACGCATGGACCGGTTTTCCCGGTAATCCGTATTTGCC (site TCCTACGCTGG)”, the “recombinant UMI read abundance (log10)” value was 0.
